Test results published in patent US20240277796A1, “METHODS FOR INHIBITING RAS” (Revolution Medicines, Inc., priority 2021, published 2024).
pIC50: −log10 of the molar value.

Experiments:
K-Ras G13C = K-Ras G13C (Homo sapiens, UniProt P01116, G13C); test: Raf-Ras (FRET or MOA) binding assay: disruption of BRAF RBD interaction with K-Ras G13C; settings: with Cyclophilin A, TR-FRET; read-out: IC50 in the Raf-Ras (FRET or MOA) binding assay re: K-Ras G13C
Excerpt: Disruption of B-Raf Ras-Binding Domain (BRAF^RBD) Interaction with K-Ras by Compounds of the Invention (Also Called a FRET Assay or an MOA Assay)
Note—The following protocol describes a procedure for monitoring disruption of K-Ras G12C (GMP-PNP) binding to BRAF^RBD by a compound of the invention. This protocol may also be executed substituting other Ras proteins or nucleotides.
The purpose of this biochemical assay was to measure the ability of test compounds to facilitate ternary complex formation between a nucleotide-loaded K-Ras isoform and Cyclophilin A; the resulting ternary complex disrupts binding to a BRAF^RBD construct, inhibiting K-Ras signaling through a RAF effector. Data was reported as IC50 values.
In assay buffer containing 25 mM HEPES pH 7.3, 0.002% Tween20, 0.1% BSA, 100 mM NaCl and 5 mM MgCl2, tagless Cyclophilin A, His 6-K-Ras-GMPPNP, and GST-BRAF^RBD were combined in a 384-well assay plate at final concentrations of 25 μM, 12.5 nM and 50 nM, respectively. Compound was present in plate wells as a 10-point 3-fold dilution series starting at a final concentration of 30 μM. […] TR-FRET signal was read on a microplate reader (Ex 320 nm, Em 665/615 nm). […]

SW1573 [1] = settings: Canon et al., Nature 575:217-223 (2019); cited from earlier work
SW1573 [2] = settings: Canon et al., Nature 575:217-223 (2019); cited from earlier work; remark: listed apart in the source
AsPC-1 (K-Ras G12D) = test: pERK potency assay, AsPC-1; type: cell-based; settings: Homo sapiens, ASPC1, read-out: IC50 in the pERK potency assay with respect to AsPC-1 (K-Ras G12D)
Excerpt: The purpose of this assay was to measure the ability of test compounds to inhibit K-Ras in cells. Activated K-Ras induces increased phosphorylation of ERK at Threonine 202 and Tyrosine 204 (pERK). This procedure measures a decrease in cellular pERK in response to test compounds. The procedure described below in NCI-H358 cells is applicable to K-Ras G12C.
Note: This protocol may be executed substituting other cell lines to characterize inhibitors of other RAS variants, including, for example, AsPC-1 (K-Ras G12D), Capan-1 (K-Ras G12V), or NCI-H1355 (K-Ras G13C).
NCI-H358 cells were grown and maintained using media and procedures recommended by the ATCC. On the day prior to compound addition, cells were plated in 384-well cell culture plates (40 μl/well) and grown overnight in a 37° C., 5% CO2 incubator. Test compounds were prepared in 10, 3-fold dilutions in DMSO, with a high concentration of 10 mM. […]
In some experiments, cellular pERK level was determined using the AlphaLISA SureFire Ultra p-ERK1/2 Assay Kit (PerkinElmer). […] Signal was read on an Envision plate reader (PerkinElmer) using standard AlphaLISA settings. […] Signal was plotted vs. the decadal logarithm of compound concentration, and IC50 was determined by fitting a 4-parameter sigmoidal concentration response model.

Sequence of K-Ras G13C (P01116 1-188 isoform P01116-2 G13C): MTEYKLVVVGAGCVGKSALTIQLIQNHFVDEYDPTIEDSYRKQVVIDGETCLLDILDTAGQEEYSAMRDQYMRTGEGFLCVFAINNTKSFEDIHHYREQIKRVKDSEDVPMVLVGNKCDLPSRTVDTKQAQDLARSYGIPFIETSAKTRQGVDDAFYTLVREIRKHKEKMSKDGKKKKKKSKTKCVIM
Sequence of K-Ras G13C (P62937 whole entry partner, the tested form may be a part): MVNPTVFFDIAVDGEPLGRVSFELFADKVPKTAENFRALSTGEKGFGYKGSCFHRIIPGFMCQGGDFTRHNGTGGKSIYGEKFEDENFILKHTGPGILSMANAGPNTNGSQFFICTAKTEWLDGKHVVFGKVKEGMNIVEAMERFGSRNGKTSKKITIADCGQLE

Row | SMILES | pIC50 (K-Ras G13C) | pIC50 (AsPC-1 (K-Ras G12D)) | further results
1 | CCn1c(-c2cccnc2[C@H](C)OC)c2c3cc(ccc31)-c1cccc(c1)C[C@H](NC(=O)[C@@H](COC1CN(C(=O)C#CC(C)(C)N(C)C)C1)N(C)C)C(=O)N1CCC[C@H](N1)C(=O)OCC(C)(C)C2 (atropisomer, axis not shown) [EA169] | < 5.82 | – | –
2 | CCn1c(-c2cccnc2[C@H](C)OC)c2c3cc(ccc31)N1CCS[C@@H](C[C@H](NC(=O)[C@@H](COC3CN(C(=O)C#CC(C)(C)N(C)C)C3)C(C)C)C(=O)N3CCC[C@H](N3)C(=O)OCC(C)(C)C2)C1 (atropisomer, axis not shown) [EA171] | < 5.82 | – | –
3 | C=CC(=O)N1CCN(c2nc(=O)n(-c3c(C)ccnc3C(C)C)c3nc(-c4c(O)cccc4F)c(F)cc23)[C@@H](C)C1 [AMG510] | – | – | sensitivity of cell line to RAS inhibitor (SW1573 [1]): insensitive; sensitivity of cell line SW1573 to the inhibitor (SW1573 [2]): insensitive
4 | CCn1c(-c2cccnc2[C@H](C)OC)c2c3cc(ccc31)-c1csc(n1)C[C@H](NC(=O)[C@H](C1CCCC1)N1CC[C@]3(CCN(C(=O)[C@@]4(C)CN4)C3)C1)C(=O)N1CCC[C@H](N1)C(=O)OCC(C)(C)C2 [FA5] | – | < 5.10 | –
5 | CCn1c(-c2cccnc2[C@H](C)OC)c2c3cc(ccc31)-c1cc(cc(C(F)F)c1)C[C@H](NC(=O)[C@H](C(C)C)N1CC[C@]3(CCN(C(=O)[C@@H]4N[C@@H]4C4CC4)C3)C1)C(=O)N1CCC[C@H](N1)C(=O)OCC(C)(C)C2 [FA17] | – | < 5.10 | –
